# Where two headings read alike, the source gives them in different places. *1 amine or outer side, *2 acyl side, *3 side chain or, on linkers, in order; H or OH if unused. Where a SMILES comes first, the peptide text is derived from it. [ ]: non-standard residue; d: D form. X1 = O=C([C@@H]1C[C@H](n2cc([C]34[CH]5[CH]6[CH]7[CH]3[Fe]6754389%10[CH]4[CH]3[CH]8[CH]9[CH]4%10)nn2)CN1[*:1])[*:2]; Cit = NC(=O)NCCC[C@H](N)C(=O)O
# B1: Cyanovirin-N: 11 kD protein originally isolated from the cyanobacteria Nostoc ellipsosporum; binds gp120 (protein, listed as Nostoc ellipsosporum)
# chain: LGKFSQTCYNSAIQGSVLTSTCERTNGGYNTSSIDLNSVIENVDGSLKWQPSNFIETCRNTQLAGSSELAAECKTRAQQFVSTKINLDDHIANIDGTLKYE
# modifications: DISULFID (8)..(22); DISULFID (58)..(73)
# Key:
# [1] = tested on: HIV-1 strain BaL; conditions: P4-CCR5 cells; Gopi et al., 2008; read-out: IC50, inhibition of infection by HIV-1 BaL; cited from earlier work
# [2] = tested on: P4-CCR5 cells; assay: In vitro cytotoxicity, MTT assay; type: cell-based; conditions: concentrations as high as 0.1 mg/ml
# Experimental: (§1) P4-CCR5 cells were seeded at a density of 4×10^4 cells/well in a 96 well plate approximately 18 hours prior to experiment. […] The cells were subsequently washed and assessed for viability using a 3-(4,5-dimethylthiazol-2-yl)-2,5-diphenyltetrazolium bromide (MTT) assay of viability (previously described in Krebs et al. (1999). Concentrations were tested in triplicate in two independent assays.
# [3] = In vitro cytotoxicity, MTT assay; type: cell-based; conditions: human; P4-CCR5 cells, 2 hours, MTT
# Experimental: as §1
# [4] = tested on: viruses pseudotyped with the VSV-G envelope; type: cell-based
# [5] = target: T1, sCD4 (Homo sapiens, UniProt P01730); assay: SPR control: direct binding of peptide to sCD4 surface; conditions: SPR control experiment
# T1 construct: soluble four domain CD4 (sCD4); made in house; host or cells: CHO cells
# [6] = target: T2, gp120 (Human immunodeficiency virus type 1 group M subtype B, UniProt P35961); type: binding, HIV-1; conditions: ITC, 25° C., PBS pH 7.4
# T2 construct: made in house; host or cells: Drosophila S2 cells
# Experimental: FIGS. 14A-14D are a series of graphs of calorimetric titration data of gp120 with various peptides. […] Data was obtained as 25° C. in PBS, pH 7.4. Experiments in FIGS. 14A and 14B were carried out using a VP-ITC, where 2 μM gp120 in the calorimetric cell (˜1.4 mL) was titrated with 10 μL aliquots of peptide at concentration of 30 μM.
# Isothermal titration calorimetric experiments were performed using high-precision calorimetric systems of model VP-ITC or ITC20 from MicroCal Inc. The titrations were performed by stepwise addition of peptide to gp120 contained in the calorimetric cell at a constant temperature of 25° C. […] For the experiments carried out in the VP-ITC the concentration of gp120 was about 2 μM and the syringe contained the peptide at a concentration about 30 μM. For the experiment carried out using ITC20 gp120 was prepared at about 4 μM and the peptide at 50-100 μM. The solutions contained within the calorimetric cells and injector syringes were prepared in PBS, pH 7.4 and thoroughly degassed to avoid bubble formation in the calorimetric cell. The heat evolved upon each injection of the peptide solution was obtained from the integral of the calorimetric signal. The heat associated with binding of a ligand to the protein in the cell was obtained by subtracting the heat of dilution from the heat of reaction.
# [7] = tested on: mAb 17b; assay: SPR control: direct binding of peptide to mAb 17b surface; conditions: SPR control experiment
# [8] = tested on: Pseudotyped HIV-1BaL; type: cell-based; conditions: Table 12; HOS.CD4.CCR5 cells, 48 hours; NA = not active; read-out: IC50 (antiviral)
# [9] = target: T3, HIV-1 YU2 gp120 (Human immunodeficiency virus type 1 group M subtype B, UniProt P35961); type: binding; conditions: for dissociation rate constant (koff): Table 11, dissociation rate; for Ka: Table 11, association rate
# T3 construct: made in house; host or cells: Drosophila S2 cells
# Experimental: Surface plasmon resonance (SPR) interaction analyses were performed on a Biacore® 3000 optical biosensor (GE). All experiments were carried out at 25° C. using standard PBS, pH 7.4, with 0.005% Surfactant P20.
# Regeneration of the surface was achieved by a one 5-second pulse of 10 mM glycine, pH 1.5.
# SPR data analyses were performed using BIAEvaluation 4.0 software (GE). […] Experimental data were fitted to a simple 1:1 binding model with a parameter included for mass transport. […] The inhibition curve was converted into a calibration curve by the use of a fitting function. The fitting was done using the 4-parameter equation in BIAevaluation software: […]
# [10] = tested on: P4-CCR5 cells; conditions: at concentrations corresponding to IC50 values; Gopi et al., 2008; cited from earlier work
# [11] = tested on: HIV-1 strain BaL; assay: Combination of HNG-156 and cyanovirin-N, HIV-1 BaL infection of P4-CCR5 cells; type: cell-based
# [12] = tested on: HIV-1 strain BaL; assay: Inhibition of HIV-1 infection, whole virus assay in P4-CCR5 cells; type: cell-based; conditions: result of one trial
molecule,measurement,setting,value
"12-mer peptide RINNIPWSEAMM (SEQ ID NO. 16) from phage-display library [Conjugate 12p1, reference compound]",IC50,[1],48 µM
CC[C@H](C)[C@H](NC(=O)[C@@H](N)CCCNC(=N)N)C(=O)N[C@@H](CC(N)=O)C(=O)N[C@@H](CC(N)=O)C(=O)N[C@H](C(=O)N1C[C@@H](n2cc([C]34[CH]5[CH]6[CH]7[CH]3[Fe]6754389%10[CH]4[CH]3[CH]8[CH]9[CH]4%10)nn2)C[C@H]1C(=O)N[C@@H](Cc1c[nH]c2ccccc12)C(=O)N[C@@H](CO)C(=O)N[C@@H](CCC(=O)O)C(=O)N[C@@H](C)C(=O)N[C@@H](CCSC)C(=O)N[C@@H](CCSC)C(N)=O)[C@@H](C)CC (some centres unmarked) [HNG-156],effect on P4-CCR5 cell viability,[2],no effect
same,CC50 at 2 h,[3],> 59 µM
CC[C@H](C)[C@H](NC(=O)[C@@H](N)CCCNC(=N)N)C(=O)N[C@@H](CC(N)=O)C(=O)N[C@@H](CC(N)=O)C(=O)N[C@H](C(=O)N1C[C@@H](n2cc([C]34[CH]5[CH]6[CH]7[CH]3[Fe]6754389%10[CH]4[CH]3[CH]8[CH]9[CH]4%10)nn2)C[C@H]1C(=O)N[C@@H](Cc1c[nH]c2ccccc12)C(N)=O)[C@@H](C)CC (some centres unmarked) [UM12] (H-RINNI[X1]W-NH2; N-terminus and C-terminus assumed),inhibition of negative control viruses pseudotyped with the VSV envelope,[4],Neither of these conjugates inhibited
same,direct binding to sCD4,[5],neither UM10 nor UM12 exhibited direct binding
same,ΔH,[6],-19.7 kcal/mol
same,−TΔS,[6],+9.9 kcal/mol
same,direct binding to 17b,[7],neither UM10 nor UM12 exhibited direct binding
same,IC50,[8],6.8 ± 0.3 µM
same,dissociation rate constant (koff),[9],1.8E−03 ± 1.3 1/S
CC[C@H](C)[C@H](NC(=O)[C@@H](N)CCC(=O)O)C(=O)N[C@@H](CC(N)=O)C(=O)N[C@@H](CC(N)=O)C(=O)N[C@H](C(=O)N1C[C@@H](n2cc([C]34[CH]5[CH]6[CH]7[CH]3[Fe]6754389%10[CH]4[CH]3[CH]8[CH]9[CH]4%10)nn2)C[C@H]1C(=O)N[C@@H](Cc1c[nH]c2ccccc12)C(=O)N[C@@H](CO)C(N)=O)[C@@H](C)CC (some centres unmarked) [UM13] (H-EINNI[X1]WS-NH2; N-terminus and C-terminus assumed),IC50,[8],1.2 ± 0.3 µM
same,dissociation rate constant (koff),[9],3.1E−03 ± 2 1/S
CC[C@H](C)[C@H](N)C(=O)N[C@@H](CC(N)=O)C(=O)N[C@@H](CC(N)=O)C(=O)N[C@H](C(=O)N1C[C@@H](n2cc([C]34[CH]5[CH]6[CH]7[CH]3[Fe]6754389%10[CH]4[CH]3[CH]8[CH]9[CH]4%10)nn2)C[C@H]1C(=O)N[C@@H](Cc1c[nH]c2ccccc12)C(N)=O)[C@@H](C)CC (some centres unmarked) [UM15] (H-INNI[X1]W-NH2),ΔH,[6],-16.6 kcal/mol
same,−TΔS,[6],+6.6 kcal/mol
same,dissociation rate constant (koff),[9],3.3E−03 ± 0.3 1/S
CC[C@H](C)[C@H](NC(=O)[C@H](CC(N)=O)NC(=O)[C@@H](N)CC(N)=O)C(=O)N1C[C@@H](n2cc([C]34[CH]5[CH]6[CH]7[CH]3[Fe]6754389%10[CH]4[CH]3[CH]8[CH]9[CH]4%10)nn2)C[C@H]1C(=O)N[C@@H](Cc1c[nH]c2ccccc12)C(N)=O (some centres unmarked) [UM17] (H-NNI[X1]W-NH2),ΔH,[6],-13.2 kcal/mol
same,−TΔS,[6],+3.3 kcal/mol
same,IC50,[8],33 ± 11 µM
same,dissociation rate constant (koff),[9],6.0E−03 ± 1.25 1/S
CC[C@H](C)[C@H](NC(=O)[C@H](CC(N)=O)NC(=O)[C@@H](N)CC(N)=O)C(=O)N1C[C@@H](n2cc([C]34[CH]5[CH]6[CH]7[CH]3[Fe]6754389%10[CH]4[CH]3[CH]8[CH]9[CH]4%10)nn2)C[C@H]1C(=O)N[C@@H](Cc1c[nH]c2ccccc12)C(=O)N[C@@H](CO)C(N)=O (some centres unmarked) [UM31] (H-NNI[X1]WS-NH2),ΔH,[6],-13.8 kcal/mol
same,−TΔS,[6],+4.1 kcal/mol
same,dissociation rate constant (koff),[9],7.8E−03 ± 1.1 1/S
CC[C@H](C)[C@H](NC(=O)[C@H](CC(N)=O)NC(=O)[C@@H](N)CCCNC(=N)N)C(=O)N1C[C@@H](n2cc([C]34[CH]5[CH]6[CH]7[CH]3[Fe]6754389%10[CH]4[CH]3[CH]8[CH]9[CH]4%10)nn2)C[C@H]1C(=O)N[C@@H](Cc1c[nH]c2ccccc12)C(=O)N[C@@H](CO)C(N)=O (some centres unmarked) [UM32] (H-RNI[X1]WS-NH2),dissociation rate constant (koff),[9],3.1E−03 ± 1.5 1/S
CC[C@H](C)[C@H](NC(=O)[C@H](CC(N)=O)NC(=O)[C@@H](N)CCC(=O)O)C(=O)N1C[C@@H](n2cc([C]34[CH]5[CH]6[CH]7[CH]3[Fe]6754389%10[CH]4[CH]3[CH]8[CH]9[CH]4%10)nn2)C[C@H]1C(=O)N[C@@H](Cc1c[nH]c2ccccc12)C(=O)N[C@@H](CO)C(N)=O (some centres unmarked) [UM33] (H-ENI[X1]WS-NH2),dissociation rate constant (koff),[9],1.8E−03 ± 0.8 1/S
CC[C@H](C)[C@H](NC(=O)[C@H](CC(N)=O)NC(=O)[C@@H](N)CCCNC(N)=O)C(=O)N1C[C@@H](n2cc([C]34[CH]5[CH]6[CH]7[CH]3[Fe]6754389%10[CH]4[CH]3[CH]8[CH]9[CH]4%10)nn2)C[C@H]1C(=O)N[C@@H](Cc1c[nH]c2ccccc12)C(=O)N[C@@H](CO)C(N)=O (some centres unmarked) [UM34] (H-[Cit]NI[X1]WS-NH2; N-terminus assumed),Ka,[9],Not detectable
same,dissociation rate constant (koff),[9],Not detectable
CC[C@H](C)[C@H](N)C(=O)N[C@@H](CC(N)=O)C(=O)N[C@H](C(=O)N1C[C@@H](n2cc([C]34[CH]5[CH]6[CH]7[CH]3[Fe]6754389%10[CH]4[CH]3[CH]8[CH]9[CH]4%10)nn2)C[C@H]1C(=O)N[C@@H](Cc1c[nH]c2ccccc12)C(=O)N[C@@H](CO)C(N)=O)[C@@H](C)CC (some centres unmarked) [UM35] (H-INI[X1]WS-NH2; N-terminus assumed),Ka,[9],Not detectable
same,dissociation rate constant (koff),[9],Not detectable
CC[C@H](C)[C@H](NC(=O)[C@@H](N)CC(N)=O)C(=O)N1C[C@@H](n2cc([C]34[CH]5[CH]6[CH]7[CH]3[Fe]6754389%10[CH]4[CH]3[CH]8[CH]9[CH]4%10)nn2)C[C@H]1C(=O)N[C@@H](Cc1c[nH]c2ccccc12)C(=O)N[C@@H](CO)C(N)=O (some centres unmarked) [UM41] (H-NI[X1]WS-NH2),ΔH,[6],-6.1 kcal/mol
same,−TΔS,[6],-1.6 kcal/mol
same,Ka,[9],Not detectable
same,dissociation rate constant (koff),[9],Not detectable
RINNIPWSEAMM [HNG-113],impact on cell viability,[10],no or minimal impact
same,synergy with CV-N,[11],does not synergize
same,IC50,[1],0.156 µM
RINNIPWSEAMM [HNG-124],impact on cell viability,[10],no or minimal impact
same,IC50,[1],0.418 µM
RINNIPWSEAMM [HNG-137],impact on cell viability,[10],no or minimal impact
same,IC50,[1],0.61 µM
dextran sulfate,Viral infectivity inhibition IC50,[11]; agent alone,0.900 microgram/milliliter
same,IC50,[12],9.8 µM
same,"IC50, inhibition of infection by HIV-1 BaL",[12],4.9 µg/mL
B1,Viral infectivity inhibition IC50,[11]; agent alone,0.026 microgram/milliliter
same,EC50 Dm,"[11]; agent alone, dose at which 50% neutralization occurs",0.045 µg/mL

# Reference: patent publication US8951963B2, “Active cores of peptide triazole HIV-1 entry inhibitors” (priority 2009, dated 2015)
